In USRE37078E, “Thiophene compounds” (Adir et Compagnie, priority 1995, dated 2001):

Legend:
[1] = tested on: cyclooxygenase pathway (PGE2); assay: biosynthesis of mediators of the cyclooxygenase pathway in vitro on rat polymorphonucleocytes stimulated by ionophore A23187; format: cell-based
From the text: (§1) Tordjman et al. ("High-performance liquid chromatographic quantitation of cyclooxygenase and lipoxygenase metabolites of arachidonic acid from rat polymorphonuclear leucocytes" Journal of Chromatography, 532, 1990, 135-143).

[2] = tested on: lipoxygenase pathway (LTB4); assay: biosynthesis of mediators of the lipoxygenase pathway in vitro on rat polymorphonucleocytes stimulated by ionophore A23187; format: cell-based
From the text: as §1

mouse = assay: acute inflammatory pain test in the mouse (Siegmund test, writhing); format: in vivo; conditions: oral administration, read-out: dose causing 50% inhibition of the reactions of the animal
From the text: Exp. Ther. 119, 1957, 184).

rat = assay: polyarthritis auto-immune model in the rat using Freund's adjuvant; format: in vivo; conditions: oral, 5 mg/kg/day, 14th day of the pathology
Protocol: 3) The activity on chronic inflammation was evaluated in a polyarthritis auto-immune model in the rat using Freund's adjuvant in accordance with the protocol described by J. Bonnet et al. ("Bone morphometric changes in adjuvant-induced polyarthritic osteopenia in rats; evidence for an early bone formation defect" J. Bone Miner. Res. 8, 1993, 659-668). By way of example, the compound of Example 1, at an oral dose of 5 mg/kg/day, inhibits by 30% the diffusion of arthritis on the 14th day of the pathology.

Structure (SMILES)	IC50 [1]	IC50 [2]	ED50 (mouse)	inhibition of the diffusion of arthritis (rat)
COc1ccc(-c2cc(CCCC(=O)N(C)O)sc2-c2ccc(OC)cc2)cc1 [Example 6]	380 nM	50 nM	2.5 mg/kg	–
COc1ccc(-c2sc(CCC(=O)N(C)O)cc2-c2ccc(F)cc2)cc1 [Example 2]	380 nM	80 nM	5 mg/kg	–
COc1ccc(-c2cc(CCC(C)(C)CC(=O)NO)sc2-c2ccc(OC)cc2)cc1 [Example 3]	2500 nM	1000 nM	–	–
COc1ccc(-c2cc(CCC(C)(C)CC(=O)N(C)O)sc2-c2ccc(OC)cc2)cc1 [Example 4]	750 nM	380 nM	–	–
COc1ccc(-c2sc(CCC(C)(C)CC(=O)N(C)O)cc2-c2ccc(F)cc2)cc1 [Example 5]	2500 nM	250 nM	–	–
CCN(O)C(=O)CCc1cc(-c2ccc(OC)cc2)c(-c2ccc(OC)cc2)s1 [Example 22]	80 nM	50 nM	–	–
COc1ccc(-c2cc(CCC(=O)N(C)O)sc2-c2ccc(OC)cc2)cc1 [Example 1, 3-[4,5-bis(4-methoxyphenyl)thien-2-yl]-N-hydroxy-N-methylpropionamide]	50 nM	30 nM	1 mg/kg	30%
COc1ccc(-c2sc(CCCC(=O)N(C)O)cc2-c2ccc(C)cc2)cc1 [Example 16]	50 nM	50 nM	–	–
